Literature values as cited in US20050203014A1, “Composition and methods for modulating CNS activity” (Curis, Inc., priority 2003, published 2005).

What was measured:
[1] = system: dentate gyrus of the rat hippocampus
[2] = system: knock-out mice lacking 5-HT1A receptors; details: 5-HT1A receptor knock-out mice

For `CNCCC(Oc1ccc(C(F)(F)F)cc1)c1ccccc1` (centres unmarked) [fluoxetine], the “neurogenesis in the dentate gyrus” value [1] is given as “increase neurogenesis” and the response to antidepressant [2] is given as “non-responsive”.
In the case of `CNCCCN1c2ccccc2CCc2ccccc21` [desipramine], the response to antidepressant [2] is listed as “respond”.
For `CN(C)CCCN1c2ccccc2CCc2ccccc21` [imipramine], the “neurogenesis in the dentate gyrus” value [1] is listed as “increase neurogenesis” and the response to antidepressant [2] is listed as “respond”.
